Test results from US9072729B2, “Method for treating fibrosis and cancer with imidazolium and imidazolinium compounds” (Agency for Science, Technology and Research, priority 2008, dated 2015).
Read-outs that look alike come from different tables or passages of the source.

Experiments:
Type in all cases: cell-based, rat
col1a1 = test: Real-time RT-PCR of col1a1 mRNA in HSC T6 cells; conditions: 48 h; DBIM 1 mM, DPIM 2 mM, TMPHIM 50 μM, DPPHIM 10 μM
Protocol: (§1) FIG. 6. (a) DBZIM and (b) TDBZIM suppressed the mRNA expression of HSC activation markers (GFAP and SMAA) and fibrotic endpoints (col1a1 and fibronectin) in a dosage-dependent manner. […] The ΔΔCt method was used for relative quantification with vehicle control sample being the calibrator. The data were presented as mean and SEM, N=6, *^aP<0.05, *^bP<0.01, *^cP<0.005, and *^dP<0.0005, when compared to the vehicle control. FIG. 7. DBZIM (100 μM) and TDBZIM (100 μM) suppressed (a) GFAP, (b) SMAA, (c) col1a1 and (d) fibronectin mRNA expression in a time-dependent manner. HSC T6 cells were treated with DBZIM and TDBZIM, and assayed after 8, 24 and 48 h. […] FIG. 14. […] (50 μM), […] (50 μM), […] (10 μM) and DBZBIM (100 μM) were dissolved in DMSO with a final DMSO concentration of 0.2% (v/v). DPIM (2 mM), EGCG (25 μM) and DBZIM (100 μM) were dissolved in H2O. β-actin was used as the normalization gene; its expression was constant under the experimental conditions. Relative quantification was normalized against the respective vehicle control. The data were presented as mean and SEM, N=6, *^aP<0.05, *^cP<0.005, and *^dP<0.0005, when compared to the vehicle control. Total RNA was isolated using NucleoSpin RNAII isolation kit ([…], Germany), and quantified by ND-100 spectrophotometer (Nanodrop Technologies, DE, USA). The details of real-time RT-PCR were reported elsewhere (Zhang et al. 2006). Briefly, it was a two-step real-time RT-PCR using Taqman chemistry. Total RNA was first reverse transcribed to cDNA, and real-time PCR was run and detected in ABI 7500 Fast Real-Time PCR System (Applied Biosystems, CA, USA). Primers and probes for rat GFAP, SMAA, collagen Ia1, fibronectin, TGF-β1, TGF-β receptor I (TGFβ RI) and IL-6 were ordered from Taqman's assay-on-demand database. Rat β-actin was used as normalization gene, and its expression level was constant (CT difference was <±0.5) throughout the experimental settings in this study. Relative quantification of target mRNA was calculated using comparative threshold cycle method (ΔΔCT) as described in User Bulletin #2 (ABI Prism 7700 Sequence Detection System). Relative quantification was given by 2^-ΔΔCT to express the up-regulation or down regulation of the target gene under the treatments compared to the control.

GFAP = test: Real-time RT-PCR of GFAP mRNA in HSC T6 cells; conditions: 48 h; DPIM 2 mM, AMIM 50 μM, TMPHIM 50 μM, DBZBIM 100 μM
Protocol: as §1

fibronectin = test: Real-time RT-PCR of fibronectin mRNA in HSC T6 cells; conditions: 48 h; DPIM 2 mM, TMPHIM 50 μM, DBZIM 100 μM
Protocol: as §1

SMAA = test: Real-time RT-PCR of SMAA mRNA in HSC T6 cells; conditions: 48 h; DBIM 1 mM, DPIM 2 mM, AMIM 50 μM, TMPHIM 50 μM
Protocol: as §1

HSC T6 cells = test: MTS based proliferation assay (cytotoxicity) on cultured HSC-T6 cells; conditions: read-out: IC50 (toxicity on T6 cells)
Protocol: FIG. 1. Cytotoxicity of (a) DBZIM and (b) TDBZIM. […] The signal was normalized against a vehicle control treatment (0 μM of compound). The data were obtained from four independent experiments, and presented as mean and standard error or mean (SEM), *^aP<0.05, *^bP<0.01 and *^cP<0.005.
Firstly we assessed the cytotoxicity of DBZIM and TDBZIM on cultured HSC-T6 cells using a 3-(4,5-dimethylthiazol-2-yl)-5-(3-carboxymethoxyphenyl)-2-(4-sulfophenyl)-2H-tetrazolium (MTS) based proliferation assay kit (Promega, Wis., USA). […]

HSC-T6 cells [1] = test: Glutathione (GSH) and GSSG assays
Protocol: FIG. 3. […] (c) DBZIM and (d) TDBZIM both suppressed cellular GSSG (the oxidation product of GSH). (e) DBZIM and (f) TDBZIM both enhanced the GSH/GSSG ratio. HSC-T6 cells were incubated with compounds of various concentrations for 48 h, and assayed for the total GSH and GSSG amounts. The GSH/GSSG ratio was calculated as (GSH−GSSG)/GSSG. The GSH and GSSG amounts were normalized against the total protein. Note that DBZIM was dissolved in DMSO, and TDBZIM was dissolved in H2O. The data were presented as mean and SEM, N=6, *^aP<0.05, *^bP<0.01, *^cP<0.005, and *^dP<0.0005, when compared to the vehicle control.
Total cellular GSH and GSSG levels were determined by using assay kits from Cayman Chemical (Ann Arbor, Mich., USA) following the manufacturer's instructions. Briefly, HSC-T6 cells treated with DBZIM, TDBZIM, NAC, or EGCG were scalped and homogenized in phosphate buffered saline (PBS) by sonication at 60% frequency for 30 s, and the supernatant was collected after centrifugation at 16,000×g for 10 min at 4° C. Protein content of the samples was determined by bicinchonicic acid (BCA) assay.
For GSH assays, the protein sample was deproteinated by metaphosphoric acid (Aldrich, Catalog No. 23927-5), and the pH was adjusted by triethanolamine (Aldrich, Catalog No. T5830-0) according to the manual. The sample was ready for assaying total GSH including both the reduced and oxidized forms. Quantification of GSSG, exclusive of GSH, was performed by first derivatizing GSH with 2-vinylpyridine and assaying separately. Colorimetric signal was recorded at 405 nm with a Tecan Safire II plate reader. The levels of GSH or GSSG were determined as nmol/μg protein.

SOD = test: Superoxide dismutase (SOD) activity assay in treated cells
Protocol: (§2) FIG. 4. Effect of DBZIM and TDBZIM on GPx, CAT, SOD and GST. DBZIM affected (a) GPx activity and (c) CAT activity in a dosage-dependent manner. TDBZIM suppressed (b) GPx activity and (d) CAT activity. (e) DBZIM and (f) TDBZIM had little effect on SOD activity. (g) DBZIM induced GST activity. HSC T6 cells were treated with compounds of various concentrations for 48 h, and homogenized by sonication (60% frequency for 30 s) in PBS (pH 7.4, 1 mM of EDTA) for GPx, GST and CAT assays, or in 20 mM of HEPES buffer containing 1 mM of EGTA, 210 mM of mannitol and 70 mM of sucrose (pH 7.2) for SOD assay. Enzyme activity was normalized against total protein. DBZIM was dissolved in DMSO, and TDBZIM was dissolved in H2O. The data were presented as mean and SEM, N=6, *^aP<0.05, *^bP<0.01, *^cP<0.005, and *^dP<0.0005, when compared to the vehicle control.
(§3) Activity levels of three anti-oxidant enzymes, GPx, CAT and SOD, were determined using assay kits from Cayman Chemical. To assay GPx and CAT activities, protein samples were harvested in ice-cold PBS containing 1 mM of EDTA. To assay SOD activity, protein samples were prepared in 20 mM of N-(2-hydroxyethyl)-piperazine-N′-2-ethanesulfonic acid (HEPES) buffer containing 1 mM of ethylene glycol-bis(2-aminoethylether)-N,N,N′,N′-tetraacetic acid (EGTA), 210 mM of mannitol and 70 mM of sucrose. Protein content was determined by BCA assay.
Total SOD, including all three types of SOD (Cu/Zn-, Mn- and Fe-SOD), was quantified using a tetrazolium salt to detect superoxide radicals generated by xanthine oxidase and hyposanthine. […] SOD activity was expressed as U/mg protein.

GPx = test: Glutathione peroxidase (GPx) activity assay in treated cells
Protocol: as §2, §3
GPx activity was indirectly measured by a coupled reaction with GSH reductase. Oxidized GSH, produced upon reduction of H2O2 by GPx, is recycled to its reduced state by glutathione reductase (GR) and nicotinamide adenine dinucleotide phosphate (NADPH). The oxidation of NAPDH is proportional to the GPx activity, and can be measured as a decrease in absorbance at 340 nm. GPx activity was expressed as nmol/min/mg protein.

CAT = test: Catalase (CAT) activity assay in treated cells
Protocol: FIG. 4. […] Enzyme activity was normalized against total protein. DBZIM was dissolved in DMSO, and TDBZIM was dissolved in H2O. The data were presented as mean and SEM, N=6, *^aP<0.05, *^bP<0.01, *^cP<0.005, and *^dP<0.0005, when compared to the vehicle control.
Activity levels of three anti-oxidant enzymes, GPx, CAT and SOD, were determined using assay kits from Cayman Chemical. To assay GPx and CAT activities, protein samples were harvested in ice-cold PBS containing 1 mM of EDTA. […] Protein content was determined by BCA assay.
CAT activity was determined based on reaction of the enzyme with methanol in the presence of H2O2. The formaldehyde produced was measured spectrophotometrically at 540 nm using Purpald as the chromogen. CAT activity was expressed as nmol/min/mg protein.

GST = test: Glutathione S-transferase (GST) assay in treated cells; conditions: EGCG, NAC
Protocol: as §2
The activity of phase II anti-oxidant enzyme, GST, was assayed using a kit from Cayman Chemical. Protein samples were harvested in PBS buffer containing 1 mM of EDTA, and the protein concentration was determined by BCA assay. Total GST (cytosolic and microsomal) activity was assayed by measuring the conjugation of 1-chloro-2,4-dinitobenzene (CDNB) with reduced GSH, and monitored by an increase in absorbance at 340 nm. GST activity was expressed as nmol/min/mg protein.

HSC-T6 cells [2] = test: Cellular ROS determination (DCF labeling); conditions: EGCG 25 μM, NAC 1 mM, 48 h
Protocol: FIG. 2. (a) DBZIM and (b) TDBZIM attenuated cellular ROS level. HSC T6 cells were incubated with DBZIM (10, 50, 100 and 300 μM), TDBZIM (10, 50 and 100 μM), NAC (1 mM) and EGCG (25 μM) for 48 h before assaying for cellular ROS levels. The data were presented as relative values after normalizing against a vehicle control. The data were presented as mean and SEM, N=6, *^bP<0.01, *^cP<0.005, and *^dP<0.0005 when compared to the vehicle, control.
The ROS level of treated HSC-T6 cells was determined using the dichlorofluorescein (DCF) labeling method (Molecular Probes Inc., OR, USA). Cultured cells were harvested by trypsinization, and resuspended in phenol red-free DMEM (Invitrogen). Cells were then incubated with 10 μg/ml of 2′,7′-dichloro-fluorescein diacetate (DCFH-DA) in DMEM for 15 min before resuspension in DMEM for assaying. Cell solution was dispensed into a black-wall 96-well pate in triplicate for fluorescence readout at Ex=485 nm and Em=530 nm with a Tecan Safire II plate reader. The fluorescence unit was normalized against viable cell numbers, which were determined using 3-(4,5-dimethylthiazol-2-yl)-2,5-diphenyl tetrazolium bromide (MTT assay, Promega, Wis., USA). Cellular ROS level was expressed relative to the control sample.

[3] = Rattus norvegicus, HSC-T6, HSC T6 cells

1,3-bis(2,4,6-trimethylphenyl)-imidazolinium chloride [TMPHIM]
suppression of col1a1 mRNA (col1a1): 62%
suppression of GFAP mRNA (GFAP): 66%
suppression of fibronectin mRNA (fibronectin): 29%
suppression of SMAA mRNA (SMAA): 49%
IC50 (HSC T6 cells; HSC T6 cells): 110 µM

1,3-bis(2,6-diisopropyl-phenyl)-imidazolinium chloride [DPPHIM]
suppression of col1a1 mRNA (col1a1): 47%
IC50 (HSC T6 cells; HSC T6 cells): 34 µM

1,3-di-tert-butylimidazoliniumtetrafluoroborate [DBIM]
suppression of col1a1 mRNA (col1a1): 58%
suppression of SMAA mRNA (SMAA): 49%
IC50 (HSC T6 cells; HSC T6 cells): 2000 to 3000 µM

F[B-](F)(F)F.c1c[n+](C23CC4CC(CC(C4)C2)C3)cn1C12CC3CC(CC(C3)C1)C2 [AMIM, 1,3-bis(1-adamantyl)imidazolium tetrafluoroborate]
suppression of GFAP mRNA (GFAP): 69%
suppression of SMAA mRNA (SMAA): 23%
IC50 (HSC T6 cells; [3]): 166 µM

[Br-].c1ccc(Cn2c[n+](Cc3ccccc3)c3ccccc32)cc1 [DBZBIM, 1,3-bisbenzyl-benzimidazolium bromide]
suppression of GFAP mRNA (GFAP): 50%
IC50 (HSC T6 cells; [3]): 310 µM

C[S+](C)[O-] [DMSO, dimethylsulfoxide]
GSH/GSSG ratio, of the control (HSC-T6 cells [1]; 0.2% (v/v) DMSO vs untreated): 17%
GSSG amount, of the control (HSC-T6 cells [1]; 0.2% (v/v) DMSO vs untreated): 4.4 fold
total cellular GSH level, of the control (HSC-T6 cells [1]; 0.2% (v/v) DMSO vs untreated): 74%
increase of SOD activity (SOD; 0.2% (v/v) DMSO vs untreated, not statistically significant): 10%
GPx activity, of the control (GPx; 0.2% (v/v) DMSO vs untreated): 2.62 times
CAT activity, of the control (CAT; 0.2% (v/v) DMSO vs untreated): 1.7 fold

CC(=O)N[C@@H](CS)C(=O)O [NAC, N-acetyl-L-cysteine, reference compound]
reduction of GSSG (references) (HSC-T6 cells [1]; EGCG 25 μM, NAC 5 mM, 48 h): had no effect
increase in GSH/GSSG ratio (references) (HSC-T6 cells [1]; NAC 5 mM, EGCG 25 μM, 48 h): no change
induction of total GSH (references) (HSC-T6 cells [1]; NAC 5 mM, EGCG 25 μM, 48 h): did not show any effect
effect on GST activity (references) (GST): did not have much affect
effect on SOD activity (SOD; HSC T6 cells, 48 h): did not show much effect
attenuation of cellular ROS level (references) (HSC-T6 cells [2]): did not show apparent inhibition
attenuation of GPx activity (references) (GPx; EGCG 25 μM, NAC 5 mM): did not show much effect
suppression of CAT activity (references) (CAT; EGCG, NAC (FIG. 4c)): 35%
